In EP0354046A2 (MAY & BAKER LIMITED, priority 1988, dated 1990):

Tests used:
Format in all cases: in vivo
[1] = tested on: maize var. Irla; experiment: Glasshouse experiment 4, percentage phytotoxicity on crop after 11 days; settings: for % crop phytotoxicity Maize (3-4 leaves): Bromoxynil 0 g/ha; for ED₂₀ crop phytotoxicity Maize (3-4 leaves): applied alone
Procedure: Agricultural surfactant ('Agral') was added to the spray dilutions to give 0.2%v/v concentration.
After spraying the pots were arranged in randomised blocks in a glasshouse and water as necessary. After 11 days the plants were assessed for percentage phytotoxicity (reduction in green area compared with unsprayed plants (0 = no effect 100 = complete destruction).
E = X + Y […] where E, X and Y are percentage phytotoxicity.
The ED values were then used to plot an isobole for each mixture according to the method of P.M.L. Tammes op cit.

[2] = tested on: Brassica kaber; experiment: Glasshouse experiment 3, % inhibition of growth (fresh weight, 19 days); settings: for % inhibition of growth Brassica kaber 2-3 leaves: Compound 126 0 g/ha; for ED₉₀ Brassica kaber 2-3 leaves: applied alone
Procedure: (§1) A series of experiments was carried out to determine the nature of the biological interaction between bromoxynil and five compounds of general formula I on a range of weed species. The 3-benzoyl-piperidine-2,4-dione derivatives were compounds 1, 74, 99, 110 and 126. […] The growth stages of the plants at spraying are also presented with the results. Agricultural surfactant (nonyl phenol ethylene oxide condensate containing 9 moles ethylene oxide marketed as 'Agral') was added to all spray dilutions to give 0.2% v/v concentration.
(§2) After spraying the pots were arranged in randomised blocks in a glasshouse and watered as necessary. After 19 days the fresh weight of vegetation in each pot was determined. The mean fresh weights were used to calculate the percentage inhibition of each species thus [formula]
(§3) E = X + Y […] where E, X and Y are percentage inhibition of growth.
(§4) The ED values were then used to plot an isobole for each species according to the method of P.M.L. Tammes op cit. The results of percentage inhibition of growth, the ED values calculated from them and the calculated expected values are given in Tables 1-8.

[3] = tested on: Abutilon theophrasti; experiment: as above; settings: for % inhibition of growth Abutilon theophrasti 1-2 leaves: Compound 126 0 g/ha; for ED₅₀ Abutilon theophrasti 1-2 leaves: applied alone
Procedure: as §1, §2, §3, §4

[4] = tested on: Amaranthus retroflexus; experiment: as above; settings: for % inhibition of growth Amaranthus retroflexus 2-4 leaves: Compound 126 0 g/ha; for ED₉₀ Amaranthus retroflexus 2-4 leaves: applied alone
Procedure: as §1, §2, §3, §4

[5] = tested on: Brachiaria plantaginea (BRAPL); experiment: Field experiment, post-emergence spray, % control of grass weed; settings: 29 days after application
Procedure: (§5) The following control figures were recorded on the grass weeds Brachiaria plantaginea (BRAPL), Digitaria horizontalis (DIGHO) and Eleusine indica (ELEIN) 29 days after application.

[6] = tested on: Eleusine indica (ELEIN); experiment: as above; settings: 29 days after application
Procedure: as §5

[7] = tested on: Digitaria horizontalis (DIGHO); experiment: as above; settings: 29 days after application
Procedure: as §5

[8] = tested on: Eleusine indica; experiment: Glasshouse experiment 3, % inhibition of growth (fresh weight, 19 days)
Procedure: as §1, §2, §3, §4

[9] = tested on: Digitaria sanguinalis; experiment: as above; settings: for ED₅₀: 3-4 leaves; for ED₉₀: 3 leaves
Procedure: as §1, §2, §3, §4

[10] = tested on: Echinochloa crus-galli; experiment: Glasshouse experiment 2, percentage phytotoxicity after 19 days
Procedure: Agricultural surfactant-nonylphenol ethylene oxide condensate containing 9 moles ethylene oxide was added to all spray dilutions to give 0.2% v/v concentration.
After spraying, the pots were arranged in randomised blocks in a glasshouse, watered as necessary, and assessed after 19 days for percentage phytotoxicity (reduction in green area compared with unsprayed plants) (0 = no effect; 100 = complete destruction).
The results were then used to plot an isobole with a "one-sided effect" according to the methods of P.M.L. Tammes op.cit.

[11] = tested on: Echinochloa crus-galli; experiment: Glasshouse experiment 3, % inhibition of growth (fresh weight, 19 days); settings: 3 leaves
Procedure: as §1, §2, §3, §4

[12] = tested on: Chenopodium album; experiment: as above; settings: 2-6 leaves
Procedure: as §1, §2, §3, §4

[13] = tested on: Solanum nigrum; experiment: as above; settings: 2-3 leaves
Procedure: as §1, §2, §3, §4

[14] = Bromoxynil alone, 2 leaves, Table 6
[15] = Bromoxynil alone, 2 leaves, Table 7
[16] = Bromoxynil alone 2,4,8,16,31 g/ha
[17] = Mutarda arvensis, read-out: % inhibition of growth Brassica kaber 2-3 leaves
[18] = Abutilon theophrasti, read-out: % inhibition of growth Abutilon theophrasti 1-2 leaves
[19] = Amaranthus retroflexus, read-out: % inhibition of growth Amaranthus retroflexus 2-4 leaves

SMILES: CC1(C)CC(=O)C(C(=O)c2ccc(C(F)(F)F)cc2[N+](=O)[O-])C(=O)N1 (stereo not shown) [Compound 99, 3-(2-nitro-4-trifluoromethylbenzoyl)-6,6-dimethylpiperidine-2,4-dione]
- % crop phytotoxicity Maize (3-4 leaves) ([1]; Compound (74 or 99) 63 g/ha): 0%
- % crop phytotoxicity Maize (3-4 leaves) ([1]; Compound (74 or 99) 125 g/ha): 0%
- % crop phytotoxicity Maize (3-4 leaves) ([1]; Compound (74 or 99) 250 g/ha): 0%
- % crop phytotoxicity Maize (3-4 leaves) ([1]; Compound (74 or 99) 500 g/ha): 4%
- % crop phytotoxicity Maize (3-4 leaves) ([1]; Compound (74 or 99) 1000 g/ha): 50%
- % crop phytotoxicity Maize (3-4 leaves) ([1]; Compound (74 or 99) 2000 g/ha): 51%
- ED₂₀ crop phytotoxicity Maize (3-4 leaves) [1]: ED₂₀(g/ha) 797
- ED₉₀ ([2]; Compound 99 alone, 2 leaves): ED₉₀(g/ha) 54.9
- ED₉₀ ([3]; Compound 99 alone, 1-2 leaves): ED₉₀(g/ha) 23.6
- ED₉₀ ([4]; Compound 99 alone, 2 leaves): ED₉₀(g/ha) 16.8

SMILES: CC1(C)CC(=O)C(C(=O)c2ccc(Cl)cc2[N+](=O)[O-])C(=O)N1 (stereo not shown) [Compound 1, 3-(4-chloro-2-nitrobenzoyl)-6,6-dimethylpiperidine-2,4-dione]
- % control observed ([5]; Compound 1 @ 250g/ha): 60%
- % control observed ([5]; Compound 1 @ 500g/ha): 80%
- % control observed ([6]; Compound 1 @ 250g/ha): 70%
- % control observed ([6]; Compound 1 @ 500g/ha): 80%
- % control observed ([7]; Compound 1 @ 250g/ha): 70%
- % control observed ([7]; Compound 1 @ 500g/ha): 80%
- ED₉₀ ([8]; Compound 1 alone, 3-4 leaves): ED₉₀ (g/ha) 66.8
- ED₉₀ ([2]; Compound 1 alone, 2-3 leaves): ED₉₀(g/ha) 58.1
- ED₅₀ ([3]; Compound 1 alone, 3 leaves): ED₅₀(g/ha) 21.1
- ED₉₀ ([4]; Compound 1 alone, 2 leaves): ED₉₀(g/ha) 21.6
- ED₅₀ ([9]; Compound 1 alone): ED₅₀ (g/ha) 21.6

SMILES: CS(=O)(=O)c1ccc(C(=O)C2C(=O)CCNC2=O)c([N+](=O)[O-])c1 (stereo not shown) [Compound 110, 3-(4-methylsulphonyl-2-nitrobenzoyl)piperidine-2,4-dione]
- ED₉₀ ([2]; Compound 110 alone, 2 leaves): ED₉₀(g/ha) 13.6
- ED₅₀ ([3]; Compound 110 alone, 1-2 leaves): ED₅₀(g/ha) 22.3
- % inhibition of growth ([4]; Compound 110 alone 1,2,4,8,16,31,63 g/ha, 2 leaves): 100%
- ED₉₀ ([4]; Compound 110 alone, 2 leaves): ED₉₀(g/ha) 12.6

SMILES: N#Cc1cc(Br)c(O)c(Br)c1 [Bromoxynil, 3,5-dibromo-4-hydroxybenzonitrile]
- activity on Echinochloa crus-galli ([10]; applied alone): no activity
- % control observed ([5]; Bromoxynil 250g/ha): 0%
- % control observed ([6]; Bromoxynil 250g/ha): 0%
- % control observed ([7]; Bromoxynil 250g/ha): 0%
- ED₉₀ ([8]; Bromoxynil alone, 3-4 leaves, Table 2): ED₉₀ (g/ha) ∞
- ED₉₀ ([8]; Bromoxynil alone, 3 leaves, Table 3): ED₉₀(g/ha) ∞
- ED₉₀ ([2]; Bromoxynil alone, 2-3 leaves, Table 1): ED₉₀(g/ha) 67.0
- ED₉₀ [2, 14]: ED₉₀(g/ha) 42.7
- ED₉₀ [2, 15]: ED₉₀(g/ha) 63.9
- % inhibition of growth Brassica kaber 2-3 leaves ([2]; Bromoxynil 18 g/ha): 30%
- % inhibition of growth Brassica kaber 2-3 leaves ([2]; Bromoxynil 35 g/ha): 55%
- % inhibition of growth Brassica kaber 2-3 leaves ([2]; Bromoxynil 70 g/ha): 82%
- % inhibition of growth Brassica kaber 2-3 leaves ([2]; Bromoxynil 140 g/ha): 97%
- % inhibition of growth Brassica kaber 2-3 leaves ([2]; Bromoxynil 280 g/ha): 98%
- ED₉₀ Brassica kaber 2-3 leaves [2]: ED₉₀(g/ha) 102.4
- ED₉₀ ([3]; Bromoxynil alone, 1-2 leaves, Table 5): ED₉₀(g/ha) 119.9
- ED₉₀ ([3]; Bromoxynil alone, 1-2 leaves, Table 6): ED₉₀(g/ha) 129.6
- ED₅₀ ([3]; Bromoxynil alone, 1-2 leaves, Table 7): ED₅₀(g/ha) 78.6
- ED₅₀ ([3]; Bromoxynil alone, 3 leaves, Table 1): ED₅₀(g/ha) 106.3
- % inhibition of growth Abutilon theophrasti 1-2 leaves ([3]; Bromoxynil 18 g/ha): 0%
- % inhibition of growth Abutilon theophrasti 1-2 leaves ([3]; Bromoxynil 35 g/ha): 13%
- % inhibition of growth Abutilon theophrasti 1-2 leaves ([3]; Bromoxynil 70 g/ha): 44%
- % inhibition of growth Abutilon theophrasti 1-2 leaves ([3]; Bromoxynil 140 g/ha): 96%
- % inhibition of growth Abutilon theophrasti 1-2 leaves ([3]; Bromoxynil 280 g/ha): 99%
- ED₅₀ Abutilon theophrasti 1-2 leaves [3]: ED₅₀(g/ha) 135.7
- ED₉₀ ([11]; Bromoxynil alone, Table 3): ED₉₀(g/ha) ∞
- % inhibition of growth [12, 16]: 21%
- ED₉₀ ([12]; Bromoxynil alone): ED₉₀(g/ha) 69.34
- ED₉₀ ([4]; Bromoxynil alone, 2 leaves, Table 1): ED₉₀(g/ha) 120.3
- ED₉₀ ([4]; Bromoxynil alone, 2 leaves, Table 5): ED₉₀(g/ha) 142.8
- ED₉₀ [4, 14]: ED₉₀(g/ha) 142.9
- ED₉₀ [4, 15]: ED₉₀(g/ha) 246.2
- % inhibition of growth Amaranthus retroflexus 2-4 leaves ([4]; Bromoxynil 18 g/ha): 0%
- % inhibition of growth Amaranthus retroflexus 2-4 leaves ([4]; Bromoxynil 35 g/ha): 4%
- % inhibition of growth Amaranthus retroflexus 2-4 leaves ([4]; Bromoxynil 70 g/ha): 8%
- % inhibition of growth Amaranthus retroflexus 2-4 leaves ([4]; Bromoxynil 140 g/ha): 84%
- % inhibition of growth Amaranthus retroflexus 2-4 leaves ([4]; Bromoxynil 280 g/ha): 90%
- ED₉₀ Amaranthus retroflexus 2-4 leaves [4]: ED₉₀(g/ha) 233.3
- ED₅₀ ([9]; Bromoxynil alone, Table 2): ED₅₀ (g/ha) ∞
- ED₉₀ ([9]; Bromoxynil alone, Table 3): ED₉₀(g/ha) ∞
- % inhibition of growth [13, 16]: 91%
- ED₉₀ ([13]; Bromoxynil alone): ED₉₀(g/ha) 21.27

SMILES: CS(=O)(=O)c1ccc(C(=O)C2C(=O)CCNC2=O)c(Cl)c1 (stereo not shown) [Compound 126, 3-(2-chloro-4-methylsulphonylbenzoyl)piperidine-2,4-dione]
- inhibition at 1 g/ha [2, 17]: 0%
- inhibition at 2 g/ha [2, 17]: 0%
- inhibition at 4 g/ha [2, 17]: 0%
- inhibition at 8 g/ha [2, 17]: 17%
- inhibition at 16 g/ha [2, 17]: 26%
- inhibition at 31 g/ha [2, 17]: 48%
- inhibition at 63 g/ha [2, 17]: 80%
- ED₉₀ Brassica kaber 2-3 leaves [2]: ED₉₀(g/ha) 90.6
- inhibition at 1 g/ha [3, 18]: 0%
- inhibition at 2 g/ha [3, 18]: 38%
- inhibition at 4 g/ha [3, 18]: 56%
- inhibition at 8 g/ha [3, 18]: 68%
- inhibition at 16 g/ha [3, 18]: 88%
- inhibition at 31 g/ha [3, 18]: 94%
- inhibition at 63 g/ha [3, 18]: 96%
- ED₅₀ Abutilon theophrasti 1-2 leaves [3]: ED₅₀(g/ha) 20.1
- inhibition at 1 g/ha [4, 19]: 0%
- inhibition at 2 g/ha [4, 19]: 50%
- inhibition at 4 g/ha [4, 19]: 91%
- inhibition at 8 g/ha [4, 19]: 91%
- inhibition at 16 g/ha [4, 19]: 99%
- inhibition at 31 g/ha [4, 19]: 100%
- inhibition at 63 g/ha [4, 19]: 100%
- ED₉₀ Amaranthus retroflexus 2-4 leaves [4]: ED₉₀(g/ha) 7.6

SMILES: O=C1CCNC(=O)C1C(=O)c1ccc(C(F)(F)F)cc1[N+](=O)[O-] (stereo not shown) [Compound 74, 3-(2-nitro-4-trifluoromethylbenzoyl)piperidine-2,4-dione]
- ED₉₀ ([10]; Compound 74 alone, dose giving 90% phytotoxicity): 82 g/ha
- % crop phytotoxicity Maize (3-4 leaves) ([1]; Compound (74 or 99) 63 g/ha): 0%
- % crop phytotoxicity Maize (3-4 leaves) ([1]; Compound (74 or 99) 125 g/ha): 0%
- % crop phytotoxicity Maize (3-4 leaves) ([1]; Compound (74 or 99) 250 g/ha): 3%
- % crop phytotoxicity Maize (3-4 leaves) ([1]; Compound (74 or 99) 500 g/ha): 6%
- % crop phytotoxicity Maize (3-4 leaves) ([1]; Compound (74 or 99) 1000 g/ha): 17%
- % crop phytotoxicity Maize (3-4 leaves) ([1]; Compound (74 or 99) 2000 g/ha): 63%
- ED₂₀ crop phytotoxicity Maize (3-4 leaves) [1]: ED₂₀(g/ha) 780
- ED₉₀ ([8]; Compound 74 alone, 3 leaves): ED₉₀(g/ha) 260.4
- ED₉₀ ([3]; Compound 74 alone, 1-2 leaves): ED₉₀(g/ha) 125.6
- ED₉₀ ([11]; Compound 74 alone): ED₉₀(g/ha) 168.6
- ED₉₀ ([12]; Compound 74 alone): ED₉₀(g/ha) 3.67
- ED₉₀ ([4]; Compound 74 alone, 2 leaves): ED₉₀(g/ha) 22.1
- ED₉₀ ([9]; Compound 74 alone): ED₉₀(g/ha) 180.4
- ED₉₀ ([13]; Compound 74 alone): ED₉₀(g/ha) 21.45
